Reference: patent publication US9902716B2, “Fluorinated benzofuranyl-pyrimidine derivatives containing a sulfone group” (Bayer Pharma Aktiengesellschaft, priority 2014, dated 2018)

Experiments:
CDK9/CycT1 = target: T1, CDK9/CycT1 (Homo sapiens, UniProt P50750); test: CDK9/CycT1 high ATP kinase assay (Method 1b, TR-FRET); assay type: biochemical; settings: 2 mM ATP; for IC50: Method 1b; for Selectivity high ATP CDK9 over high ATP CDK2: IC50 (high ATP CDK2)/IC50 (high ATP CDK9): Methods 1b and 2b
T1 construct: Recombinant full-length His-tagged human CDK9 and CycT1; His; purchased Invitrogen PV4131; host or cells: insect cells
T1 sequence (P50750 whole entry): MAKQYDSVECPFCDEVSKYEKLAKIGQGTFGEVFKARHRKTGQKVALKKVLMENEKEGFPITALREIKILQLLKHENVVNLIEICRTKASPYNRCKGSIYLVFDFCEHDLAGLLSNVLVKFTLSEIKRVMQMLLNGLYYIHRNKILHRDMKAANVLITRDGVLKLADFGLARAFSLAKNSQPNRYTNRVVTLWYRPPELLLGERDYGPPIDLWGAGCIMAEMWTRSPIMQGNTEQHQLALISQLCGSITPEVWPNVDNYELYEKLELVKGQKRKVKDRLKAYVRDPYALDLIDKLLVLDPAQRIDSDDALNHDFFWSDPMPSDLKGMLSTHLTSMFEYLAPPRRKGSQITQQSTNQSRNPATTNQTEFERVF
T1 sequence (O60563 whole entry partner): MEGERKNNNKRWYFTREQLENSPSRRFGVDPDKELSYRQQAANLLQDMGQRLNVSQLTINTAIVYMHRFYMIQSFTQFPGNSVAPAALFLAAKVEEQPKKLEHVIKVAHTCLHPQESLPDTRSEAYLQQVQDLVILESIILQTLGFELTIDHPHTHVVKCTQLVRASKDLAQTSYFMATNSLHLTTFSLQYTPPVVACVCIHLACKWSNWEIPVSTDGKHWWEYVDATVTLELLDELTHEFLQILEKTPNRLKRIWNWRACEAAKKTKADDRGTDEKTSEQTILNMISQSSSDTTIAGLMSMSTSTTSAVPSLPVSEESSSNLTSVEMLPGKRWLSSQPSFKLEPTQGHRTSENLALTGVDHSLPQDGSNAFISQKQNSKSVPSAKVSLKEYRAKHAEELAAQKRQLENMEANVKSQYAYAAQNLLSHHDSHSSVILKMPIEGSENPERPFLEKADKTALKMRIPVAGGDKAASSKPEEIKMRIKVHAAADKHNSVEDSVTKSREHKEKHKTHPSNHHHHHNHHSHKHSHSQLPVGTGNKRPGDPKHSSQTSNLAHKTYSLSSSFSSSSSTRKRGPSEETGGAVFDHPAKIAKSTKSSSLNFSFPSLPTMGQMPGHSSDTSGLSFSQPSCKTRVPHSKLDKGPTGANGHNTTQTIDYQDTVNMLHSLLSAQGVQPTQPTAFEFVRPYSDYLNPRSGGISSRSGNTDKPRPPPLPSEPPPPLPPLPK
Experimental: 1b. CDK9/CycT1 High ATP Kinase Assay
CDK9/CycT1-inhibitory activity of compounds of the present invention at a high ATP concentration after preincubation of enzyme and test compounds was quantified employing the CDK9/CycT1 TR-FRET assay as described in the following paragraphs.
Recombinant full-length His-tagged human CDK9 and CycT1, expressed in insect cells and purified by Ni-NTA affinity chromatography, were purchase from Invitrogen (Cat. No PV4131). As substrate for the kinase reaction biotinylated peptide biotin-Ttds-YISPLKSPYKISEG (C-terminus in amid form) was used which can be purchased e.g. form the company JERINI peptide technologies (Berlin, Germany). For the assay 50 nl of a 100 fold concentrated solution of the test compound in DMSO was pipetted into a black low volume 384 well microtiter plate (Greiner Bio-One, Frickenhausen, Germany), 2 μl of a solution of CDK9/CycT1 in aqueous assay buffer [50 mM Tris/HCl pH 8.0, 10 mM MgCl2, 1.0 mM dithiothreitol, 0.1 mM sodium ortho-vanadate, 0.01% (v/v) Nonidet-P40 (Sigma)] were added and the mixture was incubated for 15 min at 22° C. to allow pre-binding of the test compounds to the enzyme before the start of the kinase reaction. Then the kinase reaction was started by the addition of 3 μl of a solution of adenosine-tri-phosphate (ATP, 3.3 mM=> final conc. in the 5 μl assay volume is 2 mM) and substrate (1.67 μM=> final conc. in the 5 μl assay volume is 1 μM) in assay buffer and the resulting mixture was incubated for a reaction time of 25 min at 22° C. The concentration of CDK9/CycT1 was adjusted depending of the activity of the enzyme lot and was chosen appropriate to have the assay in the linear range, typical concentrations were in the range of 0.5 μg/mL. The reaction was stopped by the addition of 5 μl of a solution of TR-FRET detection reagents (0.2 μM streptavidine-XL665 [Cisbio Bioassays, Codolet, France] and 1 nM anti-RB(pSer807/pSer811)-antibody from BD Pharmingen [#558389] and 1.2 nM LANCE EU-W1024 labeled anti-mouse IgG antibody [Perkin-Elmer, product no. AD0077]) in an aqueous EDTA-solution (100 mM EDTA, 0.2% (w/v) bovine serum albumin in 100 mM HEPES/NaOH pH 7.0).
The resulting mixture was incubated 1 h at 22° C. to allow the formation of complex between the phosphorylated biotinylated peptide and the detection reagents. Subsequently the amount of phosphorylated substrate was evaluated by measurement of the resonance energy transfer from the Euchelate to the streptavidine-XL. Therefore, the fluorescence emissions at 620 nm and 665 nm after excitation at 350 nm was measured in a HTRF reader, e.g. a Rubystar (BMG Labtechnologies, Offenburg, Germany) or a Viewlux (Perkin-Elmer). The ratio of the emissions at 665 nm and at […] was taken as the measure for the amount of phosphorylated substrate. The data were normalised (enzyme reaction without inhibitor=0% inhibition, all other assay components but no enzyme=100% inhibition).

HeLa cells = test: Proliferation assay HeLa (Method 3, crystal violet); assay type: cell-based; settings: Homo sapiens, 96 h, 4 days incubation, read-out: Inhibition of HeLa cell proliferation IC50
Experimental: (§1) Cultivated tumour cells (HeLa, human cervical tumour cells, ATCC CCL-2; NCI-H460, human non-small cell lung carcinoma cells, ATCC HTB-177; A2780, human ovarian carcinoma cells, ECACC #93112519; DU 145, hormone-independent human prostate carcinoma cells, ATCC HTB-81; HeLa-MaTu-ADR, multidrug-resistant human cervical carcinoma cells, EPO-GmbH Berlin; Caco-2, human colorectal carcinoma cells, ATCC HTB-37; B16F10, mouse melanoma cells, ATCC CRL-6475) were plated at a density of 5,000 cells/well (DU145, HeLa-MaTu-ADR), 3,000 cells/well (NCI-H460, HeLa), 2,500 cells/well (A2780), 1,500 cells/well (Caco-2), or 1,000 cells/well (B16F10) in a 96-well multititer plate in 200 μL of their respective growth medium supplemented 10% fetal calf serum. After 24 hours, the cells of one plate (zero-point plate) were stained with crystal violet (see below), while the medium of the other plates was replaced by fresh culture medium (200 μl), to which the test substances were added in various concentrations (0 μM, as well as in the range of 0.001-10 μM; the final concentration of the solvent dimethyl sulfoxide was 0.5%). The cells were incubated for 4 days in the presence of test substances. Cell proliferation was determined by staining the cells with crystal violet: the cells were fixed by adding 20 μl/measuring point of an 11% glutaric aldehyde solution for 15 minutes at room temperature. After three washing cycles of the fixed cells with water, the plates were dried at room temperature. The cells were stained by adding 100 μl/measuring point of a 0.1% crystal violet solution (pH 3.0). After three washing cycles of the stained cells with water, the plates were dried at room temperature. The dye was dissolved by adding 100 μl/measuring point of a 10% acetic acid solution. The extinction was determined by photometry at a wavelength of 595 nm. The change of cell number, in percent, was calculated by normalization of the measured values to the extinction values of the zero-point plate (=0%) and the extinction of the untreated (0 μm) cells (=100%). The IC50 values (inhibitory concentration at 50% of maximal effect) were determined by means of a 4 parameter fit.

HeLa-MaTu-ADR cells = test: Proliferation assay HeLa-MaTu-ADR (Method 3, crystal violet); assay type: cell-based; settings: Homo sapiens, 96 h, 4 days incubation, read-out: Inhibition of HeLa-MaTu-ADR cell proliferation IC50
Experimental: as §1

NCI-H460 cells = test: Proliferation assay NCI-H460 (Method 3, crystal violet); assay type: cell-based; settings: Homo sapiens, 96 h; NCI-H460, 4 days incubation; read-out: Inhibition of NCI-H460 cell proliferation IC50
Experimental: as §1

DU145 cells = test: Proliferation assay DU145 (Method 3, crystal violet); assay type: cell-based; settings: Homo sapiens, DU-145, 96 h; DU145, 4 days incubation; read-out: Inhibition of DU145 cell proliferation IC50
Experimental: as §1, with “The IC50 values (inhibitory concentration at 50% of maximal effect) were determined by means of a 4 parameter fit.” left out

B16F10 cells = test: Proliferation assay B16F10 (Method 3, crystal violet); assay type: cell-based; settings: Mus musculus, B16-F10, 96 h; B16F10, 4 days incubation; read-out: Inhibition of B16F10 cell proliferation IC50
Experimental: as §1

Row | IC50 (CDK9/CycT1) [nM] | Selectivity high ATP CDK9 over high ATP CDK2: IC50 (high ATP CDK2)/IC50 (high ATP CDK9) (CDK9/CycT1) | IC50 (HeLa cells) [nM] | IC50 (HeLa-MaTu-ADR cells) [nM] | IC50 (NCI-H460 cells) [nM] | IC50 (DU145 cells) [nM] | IC50 (B16F10 cells) [nM] | Structure (SMILES)
1 | 1 | 8560 | 100 | 243 | 146 | 237 | 242 | Cc1cc(CS(C)(=O)=O)cc(Nc2ncc(F)c(-c3ccc(F)c4ccoc34)n2)c1 [Example 4, 5-Fluoro-4-(4-fluoro-1-benzofuran-7-yl)-N-{3-methyl-5-[(methylsulfonyl)methyl]-phenyl}pyrimidin-2-amine]
2 | 2 |  | 100 | 239 | 230 | 298 | 245 | CS(=O)(=O)Cc1cc(F)cc(Nc2ncc(F)c(-c3ccc(F)c4ccoc34)n2)c1 [Example 3]
3 | 9 | 147 | 270 | 290 | 330 | 360 | 390 | CS(=O)(=O)Cc1cccc(Nc2ncc(F)c(-c3ccc(F)c4ccoc34)n2)c1 [Example 1, 5-Fluoro-4-(4-fluoro-1-benzofuran-7-yl)-N-{3-[(methylsulfonyl)methyl]-phenyl}pyrimidin-2-amine]
4 | 9 | 102 | 335 | 100 | 114 |  | 100 | CCS(=O)(=O)Cc1cccc(Nc2ncc(F)c(-c3ccc(F)c4ccoc34)n2)c1 [Example 2, N-{3-[(Ethylsulfonyl)methyl]phenyl}-5-fluoro-4-(4-fluoro-1-benzofuran-7-yl)pyrimidin-2-amine]
